Experimental data published in ChEMBL document CHEMBL1201862, “PubChem BioAssay data set” (2004).
Several values for one entry are separate records, joined by “and”; a condition that tells them apart may be missing. Equal values may be shown once.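 How tested: cells in 96-well plates exposed to compound for 48 hours at five concentrations. Here, GI50 denotes the concentration required for 50% inhibition of growth.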 Activity calls are given as the source filed them. Rule as the data show it: active = GI50 up to about 1.1 µM and inactive = higher. Positions of bridges follow the written chain, without caps; N, C: chain ends. Residues, ends and D or L forms follow the SMILES beside them.

What was measured:
Test in all cases: NCI anticancer screen, dose series, 48 h
SW-620 = test system: SW-620
786-0 = test system: 786-0
BT-549 = test system: BT-549
K562 = test system: K562
Malme-3M = test system: Malme-3M
MDA-N = test system: MDA-N
HCT-116 = test system: HCT-116
LOX IMVI = test system: LOX IMVI
EKVX = test system: EKVX
SR = test system: SR
HCT-15 = test system: HCT-15
MDA-MB-231 = test system: MDA-MB-231
OVCAR-8 = test system: OVCAR-8
HOP-92 = test system: HOP-92
SF-268 = test system: SF-268
SK-MEL-2 = test system: SK-MEL-2

| SMILES | GI50 (SW-620) | GI50 (786-0) | GI50 (BT-549) | GI50 (K562) | GI50 (Malme-3M) | GI50 (MDA-N) | GI50 (HCT-116) | GI50 (LOX IMVI) | GI50 (EKVX) | GI50 (SR) | GI50 (HCT-15) [µM] | GI50 (MDA-MB-231) | GI50 (OVCAR-8) | GI50 (HOP-92) | GI50 (SF-268) | GI50 (SK-MEL-2) |
| --- | --- | --- | --- | --- | --- | --- | --- | --- | --- | --- | --- | --- | --- | --- | --- | --- |
| O=C1CC(C(O)C(O)C(O)CO)CC(=O)N1 (stereo not drawn) | > 100 µM (inactive) | > 100 µM (inactive) | 74 µM (inactive) | > 100 µM (inactive) | > 100 µM (inactive) | > 100 µM (inactive) | > 100 µM (inactive) | > 100 µM (inactive) | > 100 µM (inactive) | > 100 µM (inactive) | > 100 | > 100 µM (inactive) | > 100 µM (inactive) | > 100 µM (inactive) | > 100 µM (inactive) |  |
| O=C(c1ccccc1)N(C(=O)c1ccccc1)c1nc(SCc2ccccc2)ns1 | 37.2 µM (inactive) | 26.7 µM (inactive) | 28.8 µM (inactive) | 29.1 µM (inactive) | 22.7 µM (inactive) | 26.5 µM (inactive) | 23.8 µM (inactive) | 28.6 µM (inactive) | 25.7 µM (inactive) | 22.2 µM (inactive) | 23.9 |  | 36.6 µM (inactive) | 26.7 µM (inactive) | 30.8 µM (inactive) | 21.9 µM (inactive) |
| Cc1ccc(SCC(CF)OC(C)n2cnc3c(Cl)nc(N)nc32)cc1 (stereo not drawn) | > 100 µM (inactive) | 58.7 µM (inactive) | 16 µM (inactive) |  | 93.5 µM (inactive) | 89.1 µM (inactive) | 55.1 µM (inactive) | 70.8 µM (inactive) |  | 40 µM (inactive) | > 100 | 46.6 µM (inactive) | 69.7 µM (inactive) | 59.8 µM (inactive) | 96.8 µM (inactive) | 69.8 µM (inactive) |
| CC1(C)OC2C(CO)OC(n3cnc(N)nc3=O)C2O1 (stereo not drawn) | > 100 µM (inactive) | > 100 µM (inactive) | > 100 µM (inactive) | > 100 µM (inactive) |  | > 100 µM (inactive) | > 100 µM (inactive) | > 100 µM (inactive) | > 100 µM (inactive) | > 100 µM (inactive) | > 100 | > 100 µM (inactive) | > 100 µM (inactive) | > 100 µM (inactive) | > 100 µM (inactive) | > 100 µM (inactive) |
| COc1ccc(-c2nc3ncccn3c2-c2ccc([S+](C)[O-])cc2)cc1 (stereo not drawn) | > 100 µM (inactive) | > 100 µM (inactive) | > 100 µM (inactive) | > 100 µM (inactive) |  | 36.9 µM (inactive) | > 100 µM (inactive) | > 100 µM (inactive) |  | 50.7 µM (inactive) | > 100 | > 100 µM (inactive) | > 100 µM (inactive) | 61.2 µM (inactive) | 89.5 µM (inactive) | > 100 µM (inactive) |
| O=C(Cc1ccc(OCc2cccc(Cl)c2)cc1)NO | 31.3 µM (inactive) | 14.7 µM (inactive) | 26.2 µM (inactive) | 16.1 µM (inactive) |  | 58.9 µM (inactive) | 24.5 µM (inactive) | 11.7 µM (inactive) | 25.3 µM (inactive) | 5.81 µM (inactive) | 14.1 | 41.8 µM (inactive) | 11.7 µM (inactive) | 41 µM (inactive) | 20 µM (inactive) | 21 µM (inactive) |
| Cc1ccc(/N=C2\C(=N/c3ccc(C)cc3)N(c3ccc(C)cc3)C(=S)N2C(=O)c2ccccc2)cc1 | > 100 µM (inactive) | > 100 µM (inactive) | > 100 µM (inactive) | > 100 µM (inactive) | > 100 µM (inactive) | > 100 µM (inactive) |  |  | > 100 µM (inactive) | > 100 µM (inactive) | > 100 | > 100 µM (inactive) | > 10 µM (inactive) | > 100 µM (inactive) | > 100 µM (inactive) | > 100 µM (inactive) |
| CCC(C)C1NC(=O)C(CC(C)C)NC(=O)C(C(C)C)NC(=O)C2CSSCC(NC1=O)C(=O)N2 (stereo not drawn) (cyclo(CCVLI); disulfide 1-2; configuration not given here) | 0.16 µM (active) | 0.157 µM (active) | 0.198 µM (active) |  |  | 0.184 µM (active) | 0.0498 µM (active) | 0.0573 µM (active) | 0.15 µM (active) | 0.178 µM (active) | 1.86 | 0.103 µM (active) | 0.194 µM (active) | 0.121 µM (active) | 0.0387 µM (active) | 0.142 µM (active) |
| Cc1ccc(/C(O)=C/c2nc3ccccc3oc2=O)cc1 |  | 85.3 µM (inactive) | 44.4 µM (inactive) | 27.4 µM (inactive) | 34.1 µM (inactive) | 23.6 µM (inactive) | 75.3 µM (inactive) |  | > 100 µM (inactive) | 26.9 µM (inactive) | 92.7 | > 100 µM (inactive) | 38.4 µM (inactive) |  | > 100 µM (inactive) | > 100 µM (inactive) |
| O=C(O)c1ccc([N+](=O)[O-])c(P(=O)(O)O)c1 | > 100 µM (inactive) | > 100 µM (inactive) | > 100 µM (inactive) | > 100 µM (inactive) |  | > 100 µM (inactive) | > 100 µM (inactive) | > 100 µM (inactive) | > 100 µM (inactive) | > 100 µM (inactive) | > 100 | > 100 µM (inactive) | > 100 µM (inactive) | > 100 µM (inactive) |  | > 100 µM (inactive) |
| O=c1/c(=C/c2ccccn2)sc2nc3cc4c(cc3n12)OCCO4 | > 100 µM (inactive) | > 100 µM (inactive) | > 100 µM (inactive) | > 100 µM (inactive) | > 100 µM (inactive) | > 100 µM (inactive) | > 100 µM (inactive) | > 100 µM (inactive) |  |  | > 100 | > 100 µM (inactive) | > 100 µM (inactive) | > 100 µM (inactive) | > 100 µM (inactive) | > 100 µM (inactive) |
| CC(N/N=C(\S)N1CCCC1)c1cccnn1 (stereo not drawn) | 0.579 µM (active) | 0.452 µM (active) | 0.433 µM (active) | 0.632 µM (active) | 0.849 µM (active) | 1.84 µM (inactive) | 0.335 µM (active) | 0.444 µM (active) | 0.294 µM (active) | 0.378 µM (active) | 0.443 | 1.03 µM (active) | 0.342 µM (active) |  | 0.259 µM (active) | 0.906 µM (active) |
| O=C1OC(C(O)C(O)C(O)CO)C(O)C1O (stereo not drawn) | > 100 µM (inactive) | > 100 µM (inactive) | > 100 µM (inactive) | > 100 µM (inactive) | > 100 µM (inactive) |  | > 100 µM (inactive) | > 100 µM (inactive) | > 100 µM (inactive) | > 100 µM (inactive) | > 100 | > 100 µM (inactive) | > 100 µM (inactive) | > 100 µM (inactive) | > 100 µM (inactive) | > 100 µM (inactive) |
| O=C1C(C(c2ccc([N+](=O)[O-])cc2)N2CCOCC2)=C(O)C(c2ccccc2)N1c1ccccc1 (stereo not drawn) | > 10 µM (inactive) | > 10 µM (inactive) | > 10 µM (inactive) | > 10 µM (inactive) | > 10 µM (inactive) | > 10 µM (inactive) | > 10 µM (inactive) | > 10 µM (inactive) | > 10 µM (inactive) | > 10 µM (inactive) | > 10 | > 10 µM (inactive) | > 10 µM (inactive) |  | > 10 µM (inactive) | > 10 µM (inactive) |
| O=C(c1ccc(/N=C/c2ccccc2O)cc1)c1ccc(/N=C/c2ccccc2O)cc1 | > 100 µM (inactive) | > 100 µM (inactive) | > 100 µM (inactive) | > 100 µM (inactive) | > 100 µM (inactive) |  | > 100 µM (inactive) | > 100 µM (inactive) | > 100 µM (inactive) | > 100 µM (inactive) | > 100 | > 100 µM (inactive) |  | > 100 µM (inactive) | > 100 µM (inactive) | > 100 µM (inactive) |
| O=c1[nH]c(N/N=C\C(O)C(O)C(O)CO)nc2ccccc12 (stereo not drawn) | > 100 µM (inactive) | > 100 µM (inactive) | > 100 µM (inactive) | > 100 µM (inactive) |  | > 100 µM (inactive) | > 100 µM (inactive) | > 100 µM (inactive) | > 100 µM (inactive) | > 100 µM (inactive) and 56.2 µM (inactive) | > 100 |  | > 100 µM (inactive) | > 100 µM (inactive) | > 100 µM (inactive) | > 100 µM (inactive) |
| COc1cc2c(cc1OC)-c1c(oc3cc(OC4OC(CO)C(O)C(O)C4O)c(OC)cc3c1=O)C(O)O2 (stereo not drawn) | > 100 µM (inactive) | > 100 µM (inactive) | > 100 µM (inactive) | > 100 µM (inactive) | > 100 µM (inactive) |  | > 100 µM (inactive) | > 100 µM (inactive) | > 100 µM (inactive) |  | > 100 | > 100 µM (inactive) | > 100 µM (inactive) | > 100 µM (inactive) | > 100 µM (inactive) | > 100 µM (inactive) |
| COC(=O)[C@H](C)NC(=O)[C@H](NS(=O)(=O)c1nc2ccccc2s1)c1ccccc1 | 37.3 µM (inactive) | 29.2 µM (inactive) | 34.7 µM (inactive) | 94.4 µM (inactive) |  |  | 44.3 µM (inactive) | 15.6 µM (inactive) | 47.6 µM (inactive) | 15.6 µM (inactive) | 23.3 | 25.9 µM (inactive) | 16.7 µM (inactive) | 12.6 µM (inactive) | 15.1 µM (inactive) | 11.3 µM (inactive) |
| Cc1ccc(-c2c(C#N)c(-c3ccc(N(C)C)cc3)c(C#N)c(=O)n2NS(=O)(=O)c2ccccc2)cc1 | 39.2 µM (inactive) | 22.9 µM (inactive) | 37.2 µM (inactive) | 44.9 µM (inactive) | 87.9 µM (inactive) | 45.9 µM (inactive) | 30.7 µM (inactive) | 28 µM (inactive) | 96.6 µM (inactive) |  | 27.7 | > 100 µM (inactive) | 44.5 µM (inactive) | > 100 µM (inactive) | 79.3 µM (inactive) | 37.5 µM (inactive) |
